This note sets out measurements from patent publication US20210386768A1, “COMBINATION MEDICINE” (FUJIFILM Corporation, priority 2019, published 2021).

Type in all cases: cell-based, human
In assay [1] the test system is Cell derived from FLT3-ITD mutation-negative leukemia patient. As to the kind of experiment: Proliferation inhibitory activity against cells derived from a leukemia patient by combined use (CellTiter-Glo, combination index), FLT3-ITD negative. On the procedure: (§1) <Evaluation of Proliferation Inhibitory Activity Against Cell Derived from Leukemia Patient by Combined Use of Existing Anti-Cancer Agent>
(§2) Monocytes isolated from bone marrow or peripheral blood of two leukemia patients (one patient is FLT3-ITD mutation-positive, and the other patient is FLT3-ITD mutation-negative) were used and cultured in MethoCult™ H4534 Classic Without EPO (Cat. #H4534, manufacture by […] technologies). During this test, all cell cultures were performed in a CO2 incubator (setting: 37° C., 5% CO2, water vapor saturated). Cells were diluted with medium to 5,000 cells/well/90 μL and seeded on a 96-well plate.
(§3) After serially diluting with DMSO and further diluting with a medium, each of the test substance solutions having a concentration 10 times the final treatment concentration was prepared.
(§4) In addition, a group (a positive control group) in which only a solvent containing no drugs was added to a well in which cells were plated and a group (a negative control group) in which only a solvent containing no drugs was added to a well in which only a medium was added were prepared.
(§5) After the addition of the drug, cells were cultured for 7 or 8 days, and the cell viability was evaluated using CellTiter-Glo (registered trade mark) Reagent (Cat. #G7570, manufactured by Promega Corporation) using the amount of ATP in the cells as an indicator.
(§6) The suppression rate was determined by assuming that the amount of luminescence signal in the negative control group corresponded to the suppression of cell viability by 100% and the amount of luminescence signal in the positive control group corresponded to the suppression of cell viability by 0%. The concentration (IC50 value) at which cell viability is suppressed by 50% was calculated using XLFit (registered trade mark) software Ver. 3 (manufactured by ITOCHU Techno-Solutions Corporation). The suppression effect (Fa, the fraction affected by the dose) was calculated by dividing the suppression rate by 100.
(§7) The combination effect of the present invention was determined by calculating the combination index (CI), which is a quantitative indicator of the combination effect, using CalcuSyn (BIOSOFT) based on the value of the suppression effect.
(§8) In the table, “Fa around 0.5” and “Fa around 0.75” mean the effect of suppressing the cell viability by about 50% and about 75%, respectively, in a case where drugs are used in combination.

In assay [2] the test system is Cell derived from FLT3-ITD mutation-positive leukemia patient. The assay can be described thus: Proliferation inhibitory activity against cells derived from a leukemia patient by combined use (CellTiter-Glo, combination index), FLT3-ITD positive. On the procedure:
as §1, §2, §3, §4, §5, §6, §7, §8

Assay [3] deals with FLT3-ITD mutation-positive leukemia cell line MV-4-11. The assay can be described thus: Proliferation inhibitory activity against MV-4-11 by combined use of anti-cancer agents (CellTiter-Glo, combination index). On the procedure:
<Evaluation of Proliferation Inhibitory Activity Against FLT3-ITD Mutation-Positive Leukemia Cell Line MV-4-11 by Combined Use of Anti-Cancer Agent>
MV-4-11 cells which are a human FLT3-ITD mutation-positive leukemia cell line were subcultured in an RPMI-1640 medium containing 10% serum. During this test, all cell cultures were performed in a CO2 incubator (setting: 37° C., 5% CO2, water vapor saturated). Cells were diluted with a medium containing 10% serum to 1,000 cells/well/20 μL and seeded on a 384-well plate.
After being serially diluted with DMSO and further being diluted with a medium containing 10% serum, each of the test substance solutions having a concentration 10 times the final treatment concentration was prepared.
as §4
After the addition of the drug, cells were cultured for 3 days, and the cell viability was evaluated using CellTiter-Glo (registered trade mark) Reagent (Cat. #G7570, manufactured by Promega Corporation) using the amount of ATP in the cells as an indicator.
as §6, §7, §8

Setting [4] is: in combination with Compound A1.
[5] abbreviates: in combination with Compound A1, concentration fixing ratio A1:decitabine 1:10, A1:venetoclax 1:1, 7 or 8 days.
Where [6] appears, read: in combination with Compound A1, MV-4-11.

Regarding Venetoclax, the “combination effect in words, suppression effect around 0.5” value in assay [1] (setting [4]) is “strong synergistic effect”; in assay [2] (setting [4]), “strong synergistic effect”; in assay [3] (setting [6]) it was “moderate synergistic effect”. The “combination effect in words, suppression effect around 0.75” value in assay [1] (setting [4]), in assay [2] (setting [4]) and in assay [3] (setting [6]) was “strong synergistic effect” in each case. For the same substance, the “combination index (CI), Fa around 0.5” value is “+++ (Less than 0.7, a strong synergistic effect)” in assay [1] (setting [5]); “+++ (Less than 0.7, a strong synergistic effect)” in assay [2] (setting [5]); “++ (0.7 or more and less than 0.85, a moderate synergistic effect)” in assay [3] (in combination with Compound A1 (succinate salt), concentration fixing ratio A1:decitabine 1:3,000, A1:venetoclax 1:120, MV-4-11, 3 days, average of 4 experiments, about 50% suppression of cell viability). The “combination index (CI), Fa around 0.75” value in assay [1] (setting [5]) is “+++ (Less than 0.7, a strong synergistic effect)”; in assay [2] (setting [5]), “+++ (Less than 0.7, a strong synergistic effect)”; in assay [3] (in combination with Compound A1 (succinate salt), concentration fixing ratio A1:decitabine 1:3,000, A1:venetoclax 1:120, MV-4-11, 3 days, average of 4 experiments, about 75% suppression of cell viability) it was “+++ (Less than 0.7, a strong synergistic effect)”.
